# Tests used:
# Rhipicephalus sanguineus = test: Spot-on efficacy against Rhipicephalus sanguineus ticks on dogs, 40% DES/DMI (Example 5); type: in vivo; details: 4.0 mg/kg
# Experimental: The efficacy of a formulation comprising an isoxazoline compound (Cmpd. A) in a carrier comprising 40% DES/DMI against Ctenocephalides felis fleas and Rhipicephalus sanguineus ticks in Dogs was studied. […] Three treatment groups containing three dogs each were evaluated. All dogs were treated once topically on Day 0 by parting the hair and applying the solution from a syringe directly onto the skin in a single spot on the midline of the neck between the base of the skull and the shoulder blades.
# Treatment Group 1 was a placebo control and received 0.067 mL/kg of body weight. Treatment Group 2 was administered a topical spot-on formulation comprising 6.0% (w/v) Cmpd. A in 40% DES/DMI to deliver a dose of 4.0 mg/kg body weight. Treatment Group 3 was administered a topical spot-on formulation comprising 12% (w/v) Cmpd. A in 40% DES/DMI to deliver a dose of 4.0 mg/kg body weight.
# Ctenocephalides felis = test: Spot-on efficacy at 1 mg/kg against Ctenocephalides felis fleas in cats protected from grooming (Example 8); type: in vivo; details: cats with protective neck collar
# Experimental: In another study, the efficacy of four spot-on formulations comprising Cmpd. A dosed at 1 mg/kg body weight in different carrier vehicles against fleas in cats was studied. Five cats each were allocated to five Treatment Groups: Group 1—Untreated; Group 2—0.833% (w/v) Cmpd. A in dimethylsulfoxide (DMSO); Group 3—0.833% (w/v) Cmpd. A in DMI; Group 4—0.833% (w/v) Cmpd. A in Transcutol®; and Group 5—0.833% (w/v) Cmpd. A in DES. […] the corresponding spot-on formulation by application of the formulation directly on the skin in the midline of the neck, between the base of the skull and the shoulder blades in a single spot using a 1 mL syringe. Infestations with approximately 100 C. felis were conducted weekly on Days 7, 14, 21, 28 and 35. […]
# Ixodes ricinus = test: Spot-on efficacy against induced Ixodes ricinus tick infestations in cats (Example 10); type: in vivo; details: for prevention of the infestation of I. ricinus: 2.5% w/v in DMI
# Experimental: The efficacy of spot-on formulations comprising Cmpd. A were studied against induced infestations of Ixodes ricinus ticks in cats. Three treatment groups with six cats per group were randomly allocated: Group 1—Control, untreated; Group 2—Cmpd. A (2.5% w/v in DMI) at 0.1 ml/kg body weight (2.5 mg/kg); and Group 3—Cmpd. A (5.0% w/v in DMI) at 0.1 ml/kg body weight (5 mg/kg). Treatment was administered once on Day 0 and efficacy was assessed based on 48-hour tick (I. ricinus) counts following weekly experimental challenge from Day 7 on. […] In fact, the topical spot-on formulation offered substantial protection against I. ricinus ticks until the last day of assessment—Day 93. Due to limitations on tick availability 5 mg/kg was tested only up to Day 44 with 100% efficacy. The excellent long-lasting efficacy of the formulation of the invention against I. ricinus ticks in cats is very surprising and unexpected.
# D. variabilis = test: Efficacious plasma concentration (EC90) against D. variabilis ticks in dogs (Example 13); type: in vivo, Dermacentor variabilis; details: for EC90 (concentration required to achieve 90% efficacy): plasma concentration
# Experimental: Blood samples were collected from all dogs in the study on Days −6, 0 (at 4 h and 12 h), 1, 2, 9, 16, 23, 30, 36, 44, 51, 58, 64, 72, 79 and 86. Plasma samples were analyzed for the concentration of Compound A using an LC/MS/MS analytical method that was GLP validated for the purpose.
# Plasma concentrations of Compound A from dogs in the studies of Examples 1 and 4 were determined according to the description in Example 1, and the plasma concentration versus % efficacy against A. americanum and D. variabilis were fit to a Sigmoidal Emax model. […] Since Compound A is systemically active, the lower concentration of the compound in the plasma required to achieve 90% efficacy from the topical compositions of the invention is surprising and unexpected.
compound,measurement,setting,value
"O=C(CNC(=O)c1ccc(C2=NOC(c3cc(Cl)cc(C(F)(F)F)c3)(C(F)(F)F)C2)c2ccccc12)NCC(F)(F)F (stereo not shown) [Compound A, 4-[5-[3-chloro-5-(trifluoromethyl)phenyl]-4,5-dihydro-5-(trifluoromethyl)-3-isoxazolyl]-N-[2-oxo-2-[(2,2,2-trifluoroethyl)amino]ethyl]-1-naphthalanecarboxamide]",% Reduction,"Rhipicephalus sanguineus; Group 2: 6.0% in 40% DES/DMI, Day 2",100.0%
same,% Reduction,"Rhipicephalus sanguineus; Group 2: 6.0% in 40% DES/DMI, Day 30",91.5%
same,% Reduction,"Rhipicephalus sanguineus; Group 2: 6.0% in 40% DES/DMI, Day 31",100.0%
same,% Reduction,"Rhipicephalus sanguineus; Group 2: 6.0% in 40% DES/DMI, Day 38",85.2%
same,% Reduction,"Rhipicephalus sanguineus; Group 3: 12% in 40% DES/DMI, Day 2",100.0%
same,% Reduction,"Rhipicephalus sanguineus; Group 3: 12% in 40% DES/DMI, Day 30",72.6%
same,% Reduction,"Rhipicephalus sanguineus; Group 3: 12% in 40% DES/DMI, Day 31",100.0%
same,% Reduction,"Rhipicephalus sanguineus; Group 3: 12% in 40% DES/DMI, Day 38",51.3%
same,% Reduction,"Ctenocephalides felis; Group 2: 0.833% in DMSO, Day 1",43.16%
same,% Reduction,"Ctenocephalides felis; Group 2: 0.833% in DMSO, Day 2",60.54%
same,% Reduction,"Ctenocephalides felis; Group 2: 0.833% in DMSO, Day 8",98.48%
same,% Reduction,"Ctenocephalides felis; Group 2: 0.833% in DMSO, Day 15",95.91%
same,% Reduction,"Ctenocephalides felis; Group 2: 0.833% in DMSO, Day 22",97.90%
same,% Reduction,"Ctenocephalides felis; Group 2: 0.833% in DMSO, Day 29",90.10%
same,% Reduction,"Ctenocephalides felis; Group 2: 0.833% in DMSO, Day 36",74.49%
same,% Reduction,"Ctenocephalides felis; Group 3: 0.833% in DMI, Day 1",37.90%
same,% Reduction,"Ctenocephalides felis; Group 3: 0.833% in DMI, Day 2",88.97%
same,% Reduction,"Ctenocephalides felis; Group 3: 0.833% in DMI, Day 8",99.62%
same,% Reduction,"Ctenocephalides felis; Group 3: 0.833% in DMI, Day 15",99.32%
same,% Reduction,"Ctenocephalides felis; Group 3: 0.833% in DMI, Day 22",98.80%
same,% Reduction,"Ctenocephalides felis; Group 3: 0.833% in DMI, Day 29",92.66%
same,% Reduction,"Ctenocephalides felis; Group 3: 0.833% in DMI, Day 36",79.54%
same,% Reduction,"Ctenocephalides felis; Group 4: 0.833% in Transcutol, Day 1",76.32%
same,% Reduction,"Ctenocephalides felis; Group 4: 0.833% in Transcutol, Day 2",83.12%
same,% Reduction,"Ctenocephalides felis; Group 4: 0.833% in Transcutol, Day 8",98.95%
same,% Reduction,"Ctenocephalides felis; Group 4: 0.833% in Transcutol, Day 15",99.01%
same,% Reduction,"Ctenocephalides felis; Group 4: 0.833% in Transcutol, Day 22",96.19%
same,% Reduction,"Ctenocephalides felis; Group 4: 0.833% in Transcutol, Day 29",95.41%
same,% Reduction,"Ctenocephalides felis; Group 4: 0.833% in Transcutol, Day 36",86.61%
same,% Reduction,"Ctenocephalides felis; Group 5: 0.833% in DES, Day 1",54.40%
same,% Reduction,"Ctenocephalides felis; Group 5: 0.833% in DES, Day 2",82.77%
same,% Reduction,"Ctenocephalides felis; Group 5: 0.833% in DES, Day 8",98.82%
same,% Reduction,"Ctenocephalides felis; Group 5: 0.833% in DES, Day 15",99.26%
same,% Reduction,"Ctenocephalides felis; Group 5: 0.833% in DES, Day 22",99.82%
same,% Reduction,"Ctenocephalides felis; Group 5: 0.833% in DES, Day 29",92.43%
same,% Reduction,"Ctenocephalides felis; Group 5: 0.833% in DES, Day 36",88.11%
same,efficacy against I. ricinus,"Ixodes ricinus; 5 mg/kg, up to Day 44",100%
same,prevention of the infestation of I. ricinus,"Ixodes ricinus; 2.5 mg/kg, until Day 56",completely prevented
same,prevention of the infestation of I. ricinus,"Ixodes ricinus; 2.5 mg/kg, until at least Day 77",> 90%
same,% Reduction Ticks,"Ixodes ricinus; Group 2: 2.5% w/v in DMI, 2.5 mg/kg, Day 2",23.71%
same,% Reduction Ticks,"Ixodes ricinus; Group 2: 2.5% w/v in DMI, 2.5 mg/kg, Day 9",100.00%
same,% Reduction Ticks,"Ixodes ricinus; Group 2: 2.5% w/v in DMI, 2.5 mg/kg, Day 23",99.60%
same,% Reduction Ticks,"Ixodes ricinus; Group 2: 2.5% w/v in DMI, 2.5 mg/kg, Day 30",100.00%
same,% Reduction Ticks,"Ixodes ricinus; Group 2: 2.5% w/v in DMI, 2.5 mg/kg, Day 37",99.58%
same,% Reduction Ticks,"Ixodes ricinus; Group 2: 2.5% w/v in DMI, 2.5 mg/kg, Day 44",100.00%
same,% Reduction Ticks,"Ixodes ricinus; Group 2: 2.5% w/v in DMI, 2.5 mg/kg, Day 51",100.00%
same,% Reduction Ticks,"Ixodes ricinus; Group 2: 2.5% w/v in DMI, 2.5 mg/kg, Day 58",100.00%
same,% Reduction Ticks,"Ixodes ricinus; Group 2: 2.5% w/v in DMI, 2.5 mg/kg, Day 65",99.02%
same,% Reduction Ticks,"Ixodes ricinus; Group 2: 2.5% w/v in DMI, 2.5 mg/kg, Day 72",99.21%
same,% Reduction Ticks,"Ixodes ricinus; Group 2: 2.5% w/v in DMI, 2.5 mg/kg, Day 79",95.54%
same,% Reduction Ticks,"Ixodes ricinus; Group 2: 2.5% w/v in DMI, 2.5 mg/kg, Day 86",84.92%
same,% Reduction Ticks,"Ixodes ricinus; Group 2: 2.5% w/v in DMI, 2.5 mg/kg, Day 93",76.65%
same,% Reduction Ticks,"Ixodes ricinus; Group 3: 5.0% w/v in DMI, 5 mg/kg, Day 2",70.27%
same,% Reduction Ticks,"Ixodes ricinus; Group 3: 5.0% w/v in DMI, 5 mg/kg, Day 9",100.00%
same,% Reduction Ticks,"Ixodes ricinus; Group 3: 5.0% w/v in DMI, 5 mg/kg, Day 23",100.00%
same,% Reduction Ticks,"Ixodes ricinus; Group 3: 5.0% w/v in DMI, 5 mg/kg, Day 30",100.00%
same,% Reduction Ticks,"Ixodes ricinus; Group 3: 5.0% w/v in DMI, 5 mg/kg, Day 37",100.00%
same,% Reduction Ticks,"Ixodes ricinus; Group 3: 5.0% w/v in DMI, 5 mg/kg, Day 44",100.00%
same,"concentration required to achieve 90% efficacy, lower than the concentration required from oral administration","D. variabilis; dogs, topical vs oral",~36%
same,EC90 (concentration required to achieve 90% efficacy),"D. variabilis; dogs, topical compositions, Sigmoidal Emax model",0.07 µg/mL
same,EC90 (concentration required to achieve 90% efficacy),D. variabilis; oral dosage form,0.11 µg/mL

# Reference: patent publication US11464763B2, “Parasiticidal compositions comprising an isoxazoline active agent, methods and uses thereof” (BOEHRINGER INGELHEIM ANIMAL HEALTH USA INC., priority 2011, dated 2022)
